Reference: patent US7786141B2 (Vertex Pharmaceuticals Incorporated, priority 2004, dated 2010)
Where two headings read alike, the source gives them in different places.

Tests used:
M4 muscarinic receptor = target: T1, M4 muscarinic receptor (Homo sapiens, UniProt P08173); assay: Functional mobilization of intracellular calcium (FLIPR) in M4-CHO cells; format: cell-based
T1 construct: expressed in transfected cells; host or cells: CHO (M4-CHO)
T1 sequence (P08173 1-479): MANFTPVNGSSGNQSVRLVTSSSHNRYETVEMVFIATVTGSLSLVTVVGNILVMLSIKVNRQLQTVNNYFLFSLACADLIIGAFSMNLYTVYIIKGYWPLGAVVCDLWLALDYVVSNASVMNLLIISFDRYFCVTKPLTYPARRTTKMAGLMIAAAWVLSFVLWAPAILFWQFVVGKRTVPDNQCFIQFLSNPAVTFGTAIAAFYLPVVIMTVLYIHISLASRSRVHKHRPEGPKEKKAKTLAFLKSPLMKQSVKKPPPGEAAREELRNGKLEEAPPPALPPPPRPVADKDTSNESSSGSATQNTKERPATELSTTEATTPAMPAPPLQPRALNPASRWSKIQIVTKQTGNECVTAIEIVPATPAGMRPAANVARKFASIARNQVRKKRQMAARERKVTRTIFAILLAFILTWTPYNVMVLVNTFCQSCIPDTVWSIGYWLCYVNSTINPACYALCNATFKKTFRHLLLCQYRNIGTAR
Description: (§1) Functional Mobilization of Intracellular Calcium to Determine Muscarinic Receptor Activity:
(§2) CHO cells expressing muscarinic receptors (M1 to M5) are grown as monolayers in tissue culture flasks at 37° C. in a humidified atmosphere containing 5% CO2 and passaged every 3-5 days. The growth media is Dulbecco's modified eagles medium (DMEM, Gibco Cat# 12430-054), containing 25 mM Hepes and supplemented with Fetal Bovine Serum (Hyclone, cat# SH30071.03), 0.1 mM of MEM non-essential amino acids (GIBCO, Cat# 11140-050), 1 mM MEM Sodium Pyruvate (GIBCO Cat# 11360-070) and 100 units/ml of Penicillin G and 100 μg/ml of Streptomycin (GIBCO Cat# 15140-122). The recombinant muscarinic receptor cell lines are grown under antibiotic pressure with media containing 25 μg/ml zeocin and 500 μg/ml G418 (M1-CHO), 4 μg/ml puromycin, 50 μg/ml zeocin and 2.5 μg/ml blasticidin (M2 and M4-CHO) or 50 μg/ml zeocin and 4 μg/ml puromycin (M3 and M5-CHO).
(§3) Cells are harvested at 80-90% confluence using Versene (GIBCO Cat# 15040-066), collected by centrifugation and seeded 18-24 hrs prior to running the calcium assay at a density of 5,000 cells/well in back-walled, clear-bottomed 384-well plates (BD Biocoat, poly-D-lysine, Cat#356663). The day of the experiment, the cells are washed with a plate washer (Bioteck Instruments, ELX 405) using bath 1 buffer (140-mM NaCl, 4.5-mM KCl, 2-mM CaCl2, 1-mM MgCl2, 10-mM Hepes-Na, 10-mM Glucose, pH 7.4, with NaOH) containing 1 mM Probenecid. Next, the calcium dye Fluo-3 (25 μl/well of Fluo-3 AM at 4 μM, Molecular Probes F-1241, in Bath 1 buffer containing 1 mM Probenecid) is added to the 25 μl of Bath 1 remaining in each well after the plate wash and the dye is loaded at 37° C. in the tissue culture incubator for 60-90 min. The fluorescent dye is removed using the plate washer with Bath 1 containing 1 mM Probenecid, leaving 25 μl/well of this solution after the wash. Alternatively, cells can be loaded with the calcium indicator from Molecular Devices (Calcium 3 Assay Reagents, Cat # R7181) adding 5 μl of a 5× solution dye in Bath 1 containing 1 mM Probenecid (10 ml per dye flask cat# R7182 to generate a solution 20×) to 20 μl of the same buffer. After loading for 60 min, the experiment can be run without having to remove the dye.
(§4) Compounds are prepared at a 2× fold concentration in a 96-well plate (round bottom, Costar Corning cat# 3656), by reconstituting the pre-spotted compounds in bath 1 containing 1 mM probenecid. The final concentration DMSO is 0.5%, and the amount of DMSO is normalized across the assay plate. To determine an agonist action of the compounds on muscarinic receptors, the reconstituted compounds are added (25 μl compound/well) to the cell assay plate (containing 25 μl/well) using the multi-channel robotic system of the FLIPR 3 Instrument (Molecular Devices, Sunnyvale, Calif.). To determine a functional inhibitory action of the compounds on muscarinic receptors, the reconstituted compounds are added (25 μl compound/well) to the assay plate and pre-incubated for 15 min prior to adding 25 μl of Carbachol at 3× the EC80 for each muscarinic subtype. Alternatively, the compounds can be co-applied simultaneously with the agonist. In both assay modes, the fluorescence is recorded for 60 sec (excitation wavelength is […] and emission wavelength 540 nm) using the FLIPR 3 instrument.
(§5) The potency, efficacy and selectivity of the muscarinic compounds were evaluated by screening the compound activity across the whole family (M1 to M5 cells). Compounds were also screened for activity on other proteins such as other GPCRs and ion channels to determine selectivity on M4 receptors.

M1 muscarinic receptor = target: T2, M1 muscarinic receptor (Homo sapiens, UniProt P11229); assay: Functional mobilization of intracellular calcium (FLIPR) in M1-CHO cells; format: cell-based
T2 construct: expressed in transfected cells; host or cells: CHO (M1-CHO)
T2 sequence (P11229 1-460): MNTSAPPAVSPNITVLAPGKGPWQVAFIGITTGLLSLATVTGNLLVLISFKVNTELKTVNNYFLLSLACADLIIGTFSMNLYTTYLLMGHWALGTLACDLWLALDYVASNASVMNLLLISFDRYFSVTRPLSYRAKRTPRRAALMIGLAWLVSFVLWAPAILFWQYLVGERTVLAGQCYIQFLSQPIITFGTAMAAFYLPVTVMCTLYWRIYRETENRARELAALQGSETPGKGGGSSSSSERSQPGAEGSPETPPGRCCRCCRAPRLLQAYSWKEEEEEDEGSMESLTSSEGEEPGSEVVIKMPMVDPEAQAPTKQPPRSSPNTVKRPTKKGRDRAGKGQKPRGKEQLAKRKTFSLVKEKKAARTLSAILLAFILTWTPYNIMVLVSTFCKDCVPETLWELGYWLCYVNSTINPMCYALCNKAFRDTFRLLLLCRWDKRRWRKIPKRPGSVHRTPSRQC
Description: as §1, §2, §3, §4, §5

[1] = Table 4, 100% efficacy is the maximum response obtained with the Carbachol control
[2] = Table 4, M4 receptor, calcium mobilization (FLIPR)
[3] = Table 4, M1 receptor, calcium mobilization (FLIPR)
[4] = M4 receptor, calcium mobilization
[5] = M4 receptor, calcium mobilization, read-out: M4 Efficacy
[6] = M1 receptor, calcium mobilization
[7] = M1 receptor, calcium mobilization, read-out: M1 Efficacy
[8] = Table 4, modulating M4 receptor
[9] = Table 4, modulating M1 receptor

| Compound | Emax (M4 muscarinic receptor; [1]) [%] | M4 Activity (M4 muscarinic receptor; [2]) | Emax (M1 muscarinic receptor; [1]) [%] | M1 Activity (M1 muscarinic receptor; [3]) | M4 Activity (M4 muscarinic receptor; [4]) | Emax (M4 muscarinic receptor; [5]) [%] | M1 Activity (M1 muscarinic receptor; [6]) | Emax (M1 muscarinic receptor; [7]) [%] | further results |
| --- | --- | --- | --- | --- | --- | --- | --- | --- | --- |
| CC(=O)N[C@H]1CC2(CCN(CC(=O)N(C)C3CCN(C)CC3)CC2)c2ccccc21 [compound 806] | < 25 | x (activity was measured to be greater than 5.0 μM) | < 25 | x (activity was measured to be greater than 5.0 μM) | – | – | – | – | – |
| Clc1ccc2c(c1)C1(CCN(CC3CCOCC3)CC1)CO2 [compound 415] | – | – | – | – | – | – | – | – | EC50 (M4 muscarinic receptor; M4-CHO cells, calcium mobilization (FLIPR)): > 1000 nM; Emax (M4 muscarinic receptor; M4-CHO cells, calcium mobilization (FLIPR), read-out: M4 Efficacy): < 65%; EC50 (M1 muscarinic receptor; M1-CHO cells, calcium mobilization (FLIPR)): > 1000 nM; Emax (M1 muscarinic receptor; M1-CHO cells, calcium mobilization (FLIPR), read-out: M1 Efficacy): < 65% |
| Cc1ccc2c(c1)C1(CCN(C3CC4CCC3C4)CC1)CN2C(=O)c1ccno1 (stereo not shown) [compound 292] | – | – | – | – | x (activity was measured to be greater than 1.0 μM) | 65 to 85 | xx (activity was measured to be between 0.1 μM and 1.0 μM) | 65 to 85 | – |
| CCOC(=O)N1CCC(N2CCCC3(CC2)CN(C(C)=O)c2ccc(F)cc23)C1 (stereo not shown) [compound 473] | < 25 | – | 25 to 100 | – | – | – | – | – | M4 Activity (M4 muscarinic receptor; [8]): x (activity was measured to be greater than 5.0 μM); M1 Activity (M1 muscarinic receptor; [9]): x (activity was measured to be greater than 5.0 μM) |
| CC(CF)OC(=O)N1CC[C@@H](CN2CCC3(CC2)CN(C(=O)N(C)C)c2ccc(F)cc23)C1 (stereo partly shown) [compound 805] | 25 to 100 | xxx (activity was measured to be less than 2.0 μM) | 25 to 100 | xxx (activity was measured to be less than 2.0 μM) | – | – | – | – | – |
| CC(=O)N1CC2(CCN(CC3CCN(C(=O)OC4CCC4)CC3)CC2)c2cc(F)ccc21 [compound 532] | < 25 | – | < 25 | – | – | – | – | – | M4 Activity (M4 muscarinic receptor; [8]): x (activity was measured to be greater than 5.0 μM); M1 Activity (M1 muscarinic receptor; [9]): x (activity was measured to be greater than 5.0 μM) |
| CC(=O)N1CC2(CCN(C3CC4CCC(C3)N4C(=O)O[C@H]3CCOC3)CC2)c2ccccc21 (stereo partly shown) [compound 623] | 25 to 100 | – | 25 to 100 | – | – | – | – | – | M4 Activity (M4 muscarinic receptor; [8]): xxx (activity was measured to be less than 2.0 μM); M1 Activity (M1 muscarinic receptor; [9]): xxx (activity was measured to be less than 2.0 μM) |
| CCOC(=O)N1C2CCC1CC(N1CCC3(CC1)CN(C(C)=O)c1c(F)cccc13)C2 (stereo not shown) [compound 322] | – | – | – | – | xxx (activity was measured to be less than 0.1 μM) | > 85 | xx (activity was measured to be between 0.1 μM and 1.0 μM) | < 65 | – |
| CCOC(=O)N1C2CCC1CC(N1CCC3(CC1)CN(C(=O)c1ccno1)c1ccc(F)cc13)C2 (stereo not shown) [compound 88] | – | – | – | – | xx (activity was measured to be between 0.1 μM and 1.0 μM) | < 65 | xxx (activity was measured to be less than 0.1 μM) | 65 to 85 | – |
| COC(=O)N1CC2(CCN(C3CC4CCC(C3)N4C(=O)O[C@H]3CCOC3)CC2)c2cc(F)ccc21 (stereo partly shown) [compound 96] | – | – | – | – | x (activity was measured to be greater than 1.0 μM) | < 65 | xx (activity was measured to be between 0.1 μM and 1.0 μM) | 65 to 85 | – |
| COCCOC(=O)N1CCC(N2CCC3(CC2)CN(C(C)=O)c2ccccc23)CC1 [compound 539] | 25 to 100 | – | 25 to 100 | – | – | – | – | – | M4 Activity (M4 muscarinic receptor; [8]): xx (activity was measured to be between 2.0 μM and 5.0 μM); M1 Activity (M1 muscarinic receptor; [9]): xx (activity was measured to be between 2.0 μM and 5.0 μM) |
| CCOC(=O)N1CCC(N2CCC3(CC2)CN(C(C)=O)c2cccc(OC)c23)CC1 [compound 560] | < 25 | – | 25 to 100 | – | – | – | – | – | M4 Activity (M4 muscarinic receptor; [8]): x (activity was measured to be greater than 5.0 μM); M1 Activity (M1 muscarinic receptor; [9]): xxx (activity was measured to be less than 2.0 μM) |
| COc1ccc(OC(=O)N2C3CCC2CC(N2CCC4(CC2)COc2ccc(F)cc24)C3)cc1 (stereo not shown) [compound 100] | – | – | – | – | xx (activity was measured to be between 0.1 μM and 1.0 μM) | 65 to 85 | xxx (activity was measured to be less than 0.1 μM) | 65 to 85 | – |
| CCOC(=O)N1CC2(CCN(C3CC4CCC3C4)CC2)c2cc(C)ccc21 (stereo not shown) [compound 902] | < 25 | x (activity was measured to be greater than 5.0 μM) | 25 to 100 | x (activity was measured to be greater than 5.0 μM) | – | – | – | – | – |
| Fc1ccc2c(c1)C1(CCN(CC3CC4C=CC3C4)CC1)CN2 (stereo not shown) [compound 183] | – | – | – | – | x (activity was measured to be greater than 1.0 μM) | 65 to 85 | xx (activity was measured to be between 0.1 μM and 1.0 μM) | 65 to 85 | – |
| CC(=O)NC1CCC2(CCN(CCC3CCCN(C(C)=O)C3)CC2)c2ccccc21 (stereo not shown) [compound 874] | < 25 | x (activity was measured to be greater than 5.0 μM) | 25 to 100 | xx (activity was measured to be between 2.0 μM and 5.0 μM) | – | – | – | – | – |
| CCOC(=O)N1CCC(N2CCC3(CC2)CN(C(C)=O)c2c(-c4ccccc4)cccc23)CC1 [compound 857] | < 25 | x (activity was measured to be greater than 5.0 μM) | 25 to 100 | x (activity was measured to be greater than 5.0 μM) | – | – | – | – | – |
| CC1=C(CCN2CCC3(CC2)C[C@H](NC(=O)C2CCCC2)c2ccccc23)C(C)(C)CCC1 [compound 873] | < 25 | x (activity was measured to be greater than 5.0 μM) | < 25 | x (activity was measured to be greater than 5.0 μM) | – | – | – | – | – |
| CN(C)C(=O)N1CC2(CCN(C[C@H]3CCN(c4nccs4)C3)CC2)c2cc(F)ccc21 [compound 852] | 25 to 100 | xxx (activity was measured to be less than 2.0 μM) | 25 to 100 | xx (activity was measured to be between 2.0 μM and 5.0 μM) | – | – | – | – | – |
